For experiment [1], the system named is A549. The experiment is described as follows: Cytotoxicity against human A549 cells assessed as reduction in cell viability after 48 hrs by WST8 assay. The format is functional, cell-based. The settings on record: A549, 48 h. For orientation: Formazan colour is commonly taken as a measure of viable cells.
A short description of experiment [2]: Cytotoxicity against human PC3 cells assessed as reduction in cell viability after 48 hrs by WST8 assay. The format is functional, cell-based. The following applies: PC-3, 48 h.
The subject of experiment [3] is A549. The experiment is described as follows: Cytotoxicity against human A549 cells assessed as reduction in cell viability after 24 hrs by WST8 assay. The settings on record: A549, 24 h. The format is functional, cell-based.
A short description of experiment [4]: Cytotoxicity against human PC3 cells assessed as reduction in cell viability after 24 hrs by WST8 assay. In kind it is functional, cell-based. The settings on record: PC-3, 24 h.
Experiment [5] is described as follows: Cytotoxicity against human MIAPaCa2 cells assessed as reduction in cell viability after 24 hrs by WST8 assay. The settings on record: MIA PaCa-2, 24 h. The format is functional, cell-based.
Experiment [6] is described as follows: Cytotoxicity against human MIAPaCa2 cells assessed as reduction in cell viability after 48 hrs by WST8 assay. The format is functional, cell-based. The settings on record: MIA PaCa-2, 48 h.
The target in experiment [7] is Tubulin (Sus scrofa) (UniProt P02554+P02550). The experiment is described as follows: Induction of porcine brain tubulin polymerization at 5 uM incubated for 10 to 40 mins by spectrophotometry.

We go through 24 molecules from ChEMBL document CHEMBL3351877, “Synthesis and identification of α-cyano bis(indolyl)chalcones as novel anticancer agents” (Bioorg Med Chem Lett, 2014).

Active and inactive are the calls of the source. The rule behind the calls is not given here.

Chain of Tubulin (Sus scrofa) (P02550 whole entry, looked up): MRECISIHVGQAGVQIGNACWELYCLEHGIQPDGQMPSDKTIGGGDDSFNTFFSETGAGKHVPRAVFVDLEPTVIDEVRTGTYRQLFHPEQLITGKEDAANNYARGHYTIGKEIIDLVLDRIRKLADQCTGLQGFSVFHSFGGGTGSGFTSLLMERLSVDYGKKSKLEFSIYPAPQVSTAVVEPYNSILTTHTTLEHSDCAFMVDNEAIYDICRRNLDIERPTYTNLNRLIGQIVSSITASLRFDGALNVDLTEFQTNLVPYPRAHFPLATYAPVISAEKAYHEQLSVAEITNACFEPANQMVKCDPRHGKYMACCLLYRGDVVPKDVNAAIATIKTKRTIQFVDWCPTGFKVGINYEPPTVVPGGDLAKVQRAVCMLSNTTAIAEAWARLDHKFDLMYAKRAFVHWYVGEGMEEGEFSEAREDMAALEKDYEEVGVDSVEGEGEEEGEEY
Chain of Tubulin (Sus scrofa) (P02554 whole entry, looked up): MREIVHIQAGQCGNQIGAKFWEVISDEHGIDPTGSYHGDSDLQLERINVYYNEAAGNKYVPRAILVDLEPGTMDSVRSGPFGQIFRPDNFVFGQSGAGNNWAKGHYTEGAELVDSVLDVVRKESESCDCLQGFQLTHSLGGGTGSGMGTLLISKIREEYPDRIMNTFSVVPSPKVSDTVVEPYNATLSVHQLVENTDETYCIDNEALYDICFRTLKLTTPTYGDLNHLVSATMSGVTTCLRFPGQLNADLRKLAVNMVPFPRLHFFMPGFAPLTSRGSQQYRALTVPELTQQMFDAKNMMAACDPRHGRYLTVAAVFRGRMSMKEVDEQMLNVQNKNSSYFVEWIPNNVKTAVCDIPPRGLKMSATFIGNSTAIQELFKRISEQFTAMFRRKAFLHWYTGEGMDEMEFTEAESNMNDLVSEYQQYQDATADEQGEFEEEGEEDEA

On to `N#C/C(=C\c1cn(Cc2ccc(Cl)cc2)c2ccccc12)C(=O)c1c[nH]c2cc(F)ccc12`, for which the 50% inhibitory concentration (IC50) is > 50 µM in experiment [1]; > 50 µM in experiment [2]; > 50 µM in experiment [3]; > 50 µM in experiment [4]; > 50 µM in experiment [5]; 16.6 µM in experiment [6].
Take `COc1ccc2c(/C=C(\C#N)C(=O)c3c[nH]c4ccccc34)c[nH]c2c1`: the IC50 is 5.8 µM in experiment [1]; 12.5 µM in experiment [2]; 9.6 µM in experiment [3]; 33.3 µM in experiment [4]; 27.5 µM in experiment [5]; > 50 µM in experiment [6].
On to `COc1ccc(Cn2cc(/C=C(\C#N)C(=O)c3c[nH]c4cc(OC)ccc34)c3ccccc32)cc1`, for which the result in experiment [7] was Active. For the same molecule, the concentration for half-maximal inhibition (IC50) was 28.9 µM in experiment [1]; > 50 µM in experiment [2]; 37.4 µM in experiment [3]; > 50 µM in experiment [4]; > 50 µM in experiment [5]; > 50 µM in experiment [6].
Turning to `COc1ccc2c(C(=O)/C(C#N)=C/c3cn(Cc4ccc(Cl)cc4)c4ccccc34)c[nH]c2c1`, the IC50 was > 50 µM in experiment [1]; > 50 µM in experiment [2]; > 50 µM in experiment [3]; > 50 µM in experiment [4]; > 50 µM in experiment [5]; 40.4 µM in experiment [6].
As for `N#C/C(=C\c1c[nH]c2ccccc12)C(=O)c1c[nH]c2ccccc12`, the half-inhibitory concentration (IC50) is 22 µM in experiment [1]; > 50 µM in experiment [2]; 16.1 µM in experiment [3]; > 50 µM in experiment [4]; 17.9 µM in experiment [5]; 36.8 µM in experiment [6].
For `COc1ccc2[nH]cc(C(=O)/C(C#N)=C/c3c[nH]c4cc(F)ccc34)c2c1`, the IC50 in experiment [1], in experiment [2], in experiment [3], in experiment [4], in experiment [5] and in experiment [6] was > 50 µM in each case.
Regarding `COc1ccc2[nH]cc(/C=C(\C#N)C(=O)c3c[nH]c4ccc(OC)cc34)c2c1`, the 50% inhibitory concentration (IC50) was 24.5 µM in experiment [1]; > 50 µM in experiment [2]; > 50 µM in experiment [3]; > 50 µM in experiment [4]; 28.5 µM in experiment [5]; > 50 µM in experiment [6].
As for `COc1ccc(Cn2cc(/C=C(\C#N)C(=O)c3c[nH]c4cc(F)ccc34)c3ccccc32)cc1`, the IC50 is 36.3 µM in experiment [1]; > 50 µM in experiment [2]; > 50 µM in experiment [3]; > 50 µM in experiment [4]; > 50 µM in experiment [5]; 29.4 µM in experiment [6].
Regarding `CO[C@@]12[C@H](COC(N)=O)C3=C(C(=O)C(C)=C(N)C3=O)N1C[C@@H]1N[C@@H]12` [MITOMYCIN], in experiment [3], the half-inhibitory concentration (IC50) came out at 0.45 µM.
With `COc1ccc2[nH]cc(/C=C(\C#N)C(=O)c3c[nH]c4ccccc34)c2c1`, the IC50 in experiment [1] came to 13.7 µM; in experiment [2], 30.5 µM; in experiment [3], 6.6 µM; in experiment [4] it was 33.2 µM; in experiment [5], 21.2 µM; in experiment [6], 25.1 µM.
As to `COc1ccc2c(C(=O)/C(C#N)=C/c3c[nH]c4ccccc34)c[nH]c2c1`, in experiment [7], the result was Active. For the same molecule, the 50% inhibitory concentration (IC50) in experiment [1] was 7.5 µM; in experiment [2] it was 12 µM; in experiment [3], 6.4 µM; in experiment [4], > 50 µM; in experiment [5] it was 13.5 µM; in experiment [6], > 50 µM.
On to `COc1ccc2[nH]cc(/C=C(\C#N)C(=O)c3c[nH]c4cc(F)ccc34)c2c1`, for which the IC50 is 26.3 µM in experiment [1]; > 50 µM in experiment [2]; 18 µM in experiment [3]; > 50 µM in experiment [4]; > 50 µM in experiment [5]; > 50 µM in experiment [6].
Turning to `N#C/C(=C\c1c[nH]c2ccc(Br)cc12)C(=O)c1c[nH]c2ccc(Br)cc12`, the half-inhibitory concentration (IC50) in experiment [1], in experiment [2], in experiment [3], in experiment [4], in experiment [5] and in experiment [6] was > 50 µM throughout.
As for `COc1ccc2c(/C=C(\C#N)C(=O)c3c[nH]c4cc(OC)ccc34)c[nH]c2c1`, the result in experiment [7] was Active. In addition, the IC50 in experiment [1] is 1.7 µM; in experiment [2], 27 µM; in experiment [3] it was 1.9 µM; in experiment [4], > 50 µM; in experiment [5], > 50 µM; in experiment [6], > 50 µM.
On to `Cn1cc(/C=C(\C#N)C(=O)c2c[nH]c3ccccc23)c2ccccc21`, for which the IC50 in experiment [1] is > 50 µM; in experiment [2], > 50 µM; in experiment [3], 27.9 µM; in experiment [4], > 50 µM; in experiment [5], 31.6 µM; in experiment [6], > 50 µM.
In the case of `COc1ccc(-c2[nH]c3ccccc3c2/C=C(\C#N)C(=O)c2c[nH]c3ccccc23)cc1`, the half-maximal inhibitory concentration (IC50) in experiment [1] was 3 µM; in experiment [2], 8.1 µM; in experiment [3], 4.9 µM; in experiment [4], 17.2 µM; in experiment [5], 24 µM; in experiment [6], > 50 µM.
For `N#C/C(=C\c1c[nH]c2cc(F)ccc12)C(=O)c1c[nH]c2cc(F)ccc12`, the IC50 in experiment [1] is 36.1 µM; in experiment [2] it was > 50 µM; in experiment [3] it was > 50 µM; in experiment [4], > 50 µM; in experiment [5] it was > 50 µM; in experiment [6], > 50 µM.
Regarding `COc1ccc(Cn2cc(/C=C(\C#N)C(=O)c3c[nH]c4ccccc34)c3ccccc32)cc1`, the IC50 in experiment [1], in experiment [2], in experiment [3], in experiment [4], in experiment [5] and in experiment [6] was > 50 µM throughout.
`COc1ccc2c(C(=O)/C(C#N)=C/c3c[nH]c4ccc(OC)cc34)c[nH]c2c1`: the IC50 in experiment [1] is 5.5 µM; in experiment [2], 37.1 µM; in experiment [3] it was 3.7 µM; in experiment [4], 31.1 µM; in experiment [5] it was > 50 µM; in experiment [6], > 50 µM.
In the case of `N#C/C(=C\c1cn(Cc2ccc(Cl)cc2)c2ccccc12)C(=O)c1c[nH]c2ccccc12`, the IC50 in experiment [1], in experiment [2], in experiment [3], in experiment [4], in experiment [5] and in experiment [6] was > 50 µM in each case.
With `N#C/C(=C\c1cn(Cc2ccc(Cl)cc2)c2ccc(Br)cc12)C(=O)c1c[nH]c2ccccc12`, the half-inhibitory concentration (IC50) was 24.9 µM in experiment [1]; 36.5 µM in experiment [2]; 14 µM in experiment [3]; 47.1 µM in experiment [4]; 37.7 µM in experiment [5]; > 50 µM in experiment [6].
For `COc1ccc2c(C(=O)/C(C#N)=C/c3c[nH]c4cc(F)ccc34)c[nH]c2c1`, the 50% inhibitory concentration (IC50) was 0.8 µM in experiment [1]; 22.5 µM in experiment [2]; 2.4 µM in experiment [3]; 36 µM in experiment [4]; > 50 µM in experiment [5]; > 50 µM in experiment [6].
In the case of `COc1ccc2c(/C=C(\C#N)C(=O)c3c[nH]c4cc(F)ccc34)c[nH]c2c1`, the concentration for half-maximal inhibition (IC50) in experiment [1] was 5.5 µM; in experiment [2], 21.4 µM; in experiment [3], 10.3 µM; in experiment [4], > 50 µM; in experiment [5] it was > 50 µM; in experiment [6], > 50 µM.
`N#C/C(=C\c1c[nH]c2cc(F)ccc12)C(=O)c1c[nH]c2ccccc12`: the 50% inhibitory concentration (IC50) in experiment [1] is 22.7 µM; in experiment [2], > 50 µM; in experiment [3], 17 µM; in experiment [4], > 50 µM; in experiment [5], 23.5 µM; in experiment [6], 31.6 µM.

A word on the IC50: it is the point on the concentration scale where inhibition reaches its midpoint.
